Measurements taken from PubChem BioAssay AID248 (DTP/NCI, 2004).
Several values for one entry are separate records, joined by “and”; a condition that tells them apart may be missing. Identical values can stand only once. Toxic doses and inconclusive results are not listed. Cut-off read from the data, not from the text of the source: active = T/C of 150% or more; inactive = T/C below 125%.

Test system: L1210 leukemia ip in BDF1 mice, survival T/C
Assay: NCI In Vivo Anticancer Drug Screen. Data for tumor model L1210 Leukemia (intraperitoneal) in B6D2F1 (BDF1) mice
Conditions: endpoint: mean survival time, higher = longer survival
Method in brief: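 Survival endpoint. Drug-treated group vs vehicle group, expressed as T divided by C. Tumor passaged by transplantation.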

[1] = dose: 100.0 mg/kg/injection, schedule: Q01DX001 (ip), vehicle: saline with Tween-80
[2] = dose: 100.0 mg/kg/injection, schedule: Q01DX009 (ip), vehicle: Klucel (hydroxypropylcellulose) (HPC)
[3] = dose: 200.0 mg/kg/injection, schedule: Q01DX009 (ip), vehicle: Klucel (hydroxypropylcellulose) (HPC)
[4] = dose: 100.0 mg/kg/injection, schedule: Q04DX002 (ip), vehicle: saline with Tween-80
[5] = dose: 200.0 mg/kg/injection, schedule: Q04DX002 (ip), vehicle: saline with Tween-80
[6] = dose: 25.0 mg/kg/injection, schedule: Q01DX009 (ip), vehicle: saline
[7] = dose: 25.0 mg/kg/injection, schedule: Q04DX003 (ip), vehicle: saline
[8] = dose: 50.0 mg/kg/injection, schedule: Q04DX003 (ip), vehicle: saline
[9] = dose: 400.0 mg/kg/injection, schedule: Q01DX009 (ip), vehicle: saline
[10] = dose: 100.0 mg/kg/injection, schedule: Q04DX003 (ip), vehicle: saline
[11] = dose: 200.0 mg/kg/injection, schedule: Q04DX003 (ip), vehicle: saline
[12] = dose: 400.0 mg/kg/injection, schedule: Q04DX003 (ip), vehicle: saline
[13] = dose: 100.0 mg/kg/injection, schedule: Q04DX003 (ip), vehicle: Klucel (hydroxypropylcellulose) (HPC)
[14] = dose: 200.0 mg/kg/injection, schedule: Q04DX003 (ip), vehicle: Klucel (hydroxypropylcellulose) (HPC)
[15] = dose: 400.0 mg/kg/injection, schedule: Q04DX003 (ip), vehicle: Klucel (hydroxypropylcellulose) (HPC)
[16] = dose: 400.0 mg/kg/injection, schedule: Q01DX009 (ip), vehicle: Klucel (hydroxypropylcellulose) (HPC)

Measured: T/C

C1=NC(c2ccccc2)=CN(C2CCCCCC2)C1(c1ccccc1)C1CCCCCC1 (stereo not drawn)
inactive: dose: 50.0 mg/kg/injection, schedule: Q04DX002 (ip), vehicle: saline 99 % of control | dose: 100.0 mg/kg/injection, schedule: Q04DX002 (ip), vehicle: Klucel (hydroxypropylcellulose) (HPC) 98 % of control | dose: 100.0 mg/kg/injection, schedule: Q04DX002 (ip), vehicle: saline 101 % of control | dose: 200.0 mg/kg/injection, schedule: Q04DX002 (ip), vehicle: Klucel (hydroxypropylcellulose) (HPC) 88 % of control | dose: 200.0 mg/kg/injection, schedule: Q04DX002 (ip), vehicle: saline 96 % of control | dose: 400.0 mg/kg/injection, schedule: Q04DX002 (ip), vehicle: Klucel (hydroxypropylcellulose) (HPC) 95 % of control

CCCCOCCOC(=O)CC(/C=C(/C)CC(C)(C)C)C(=O)OCCOCCCC (stereo not drawn)
inactive: dose: 222.0 mg/kg/injection, schedule: Q01DX Z (ip), vehicle: methylcellulose (MC) 101 % of control | dose: 333.0 mg/kg/injection, schedule: Q01DX Z (ip), vehicle: methylcellulose (MC) 108 % of control | dose: 500.0 mg/kg/injection, schedule: Q01DX Z (ip), vehicle: methylcellulose (MC) 96 % of control

CCOC(=O)c1nc(N)nc(N)c1-c1ccc(Cl)cc1
inactive: dose: 25.0 mg/kg/injection, schedule: Q01DX001 (ip), vehicle: saline with Tween-80 98 % of control | dose: 50.0 mg/kg/injection, schedule: Q01DX001 (ip), vehicle: saline with Tween-80 104 % of control | [1] 102 % of control

CC(C)C(=O)Nc1cccc(Cl)c1
inactive: dose: 100.0 mg/kg/injection, schedule: Q01DX009 (ip), vehicle: saline with Tween-80 95 % of control | dose: 200.0 mg/kg/injection, schedule: Q01DX009 (ip), vehicle: saline with Tween-80 95 % of control | dose: 400.0 mg/kg/injection, schedule: Q01DX009 (ip), vehicle: saline with Tween-80 101 % of control

CC(=O)c1cccc(NC(=O)Nc2ccc(F)c([N+](=O)[O-])c2)c1
inactive: [2] 95 % of control | [3] 96 % of control

CC(=O)NC1CCC(/C=C(\C#N)C2CCC([N+](=O)[O-])CC2)CC1 (stereo not drawn)
inactive: dose: 25.0 mg/kg/injection, schedule: Q04DX002 (ip), vehicle: saline with Tween-80 97 % of control | dose: 50.0 mg/kg/injection, schedule: Q04DX002 (ip), vehicle: saline with Tween-80 94 % of control | [4] 94 % of control | [5] 86 % of control | dose: 400.0 mg/kg/injection, schedule: Q04DX002 (ip), vehicle: saline with Tween-80 104 % of control

O=c1[nH]cc(F)c(=O)n1C1OC(CO)C(O)C1O (stereo not drawn)
inactive: dose: 0.78 mg/kg/injection, schedule: Q01DX009 (ip), vehicle: saline 124 % of control | dose: 6.0 mg/kg/injection, schedule: Q01DX009 (ip), vehicle: saline 97 % of control | dose: 18.8 mg/kg/injection, schedule: Q04DX003 (ip), vehicle: saline 107 % of control | [6] 118 % of control | [7] 105 % of control | dose: 37.5 mg/kg/injection, schedule: Q04DX003 (ip), vehicle: saline 110 % of control | [8] 110 % of control
active: dose: 1.5 mg/kg/injection, schedule: Q01DX009 (ip), vehicle: saline 159 % of control | dose: 1.56 mg/kg/injection, schedule: Q01DX009 (ip), vehicle: saline 152 % of control | dose: 3.12 mg/kg/injection, schedule: Q01DX005 (ip), vehicle: saline 167 % of control | dose: 3.12 mg/kg/injection, schedule: Q01DX009 (ip), vehicle: saline 173 % of control | dose: 6.25 mg/kg/injection, schedule: Q01DX005 (ip), vehicle: saline 171 % of control | dose: 6.25 mg/kg/injection, schedule: Q01DX009 (ip), vehicle: saline 204 % of control | dose: 12.5 mg/kg/injection, schedule: Q01DX009 (ip), vehicle: saline 231 % of control | dose: 178.0 mg/kg/injection, schedule: Q01DX009 (ip), vehicle: saline 165 % of control | dose: 267.0 mg/kg/injection, schedule: Q01DX009 (ip), vehicle: saline 163 % of control | [9] 150 % of control | dose: 600.0 mg/kg/injection, schedule: Q01DX009 (ip), vehicle: saline 171 % of control

C=C1CC2C=CC1C2 (stereo not drawn) (tested in a mixture with another compound)
inactive: [1] 98 % of control | dose: 200.0 mg/kg/injection, schedule: Q01DX001 (ip), vehicle: saline with Tween-80 93 % of control | dose: 400.0 mg/kg/injection, schedule: Q01DX001 (ip), vehicle: saline with Tween-80 94 % of control

CC(=O)Nc1nnc(Sc2n[nH]c(=O)[nH]c2=O)s1
inactive: dose: 10.0 mg/kg/injection, schedule: Q01DX001 (ip), vehicle: saline 98 % of control

N=c1nc(N)c(N)c(N)n1O
inactive: dose: 100.0 mg/kg/injection, schedule: Q01DX001 (ip), vehicle: carboxymethylcellulose (CMC) 94 % of control | dose: 200.0 mg/kg/injection, schedule: Q01DX001 (ip), vehicle: carboxymethylcellulose (CMC) 97 % of control | dose: 400.0 mg/kg/injection, schedule: Q01DX001 (ip), vehicle: carboxymethylcellulose (CMC) 97 % of control

O=S(=O)(O)c1ccc(Cl)cc1
inactive: dose: 100.0 mg/kg/injection, schedule: Q04DX003 (ip), vehicle: saline with Tween-80 96 % of control | dose: 200.0 mg/kg/injection, schedule: Q04DX003 (ip), vehicle: saline with Tween-80 104 % of control | dose: 400.0 mg/kg/injection, schedule: Q04DX003 (ip), vehicle: saline with Tween-80 106 % of control

CC(=O)CC(=O)Nc1ccc(NC(C)=O)cc1
inactive: dose: 100.0 mg/kg/injection, schedule: Q01DX001 (ip), vehicle: saline 96 % of control | dose: 200.0 mg/kg/injection, schedule: Q01DX001 (ip), vehicle: saline 100 % of control | dose: 400.0 mg/kg/injection, schedule: Q01DX001 (ip), vehicle: saline 105 % of control

CC#CCOCC1CNC(=O)O1 (stereo not drawn)
inactive: [6] 98 % of control | [7] 105 % of control | dose: 50.0 mg/kg/injection, schedule: Q01DX009 (ip), vehicle: saline 93 % of control | [8] 97 % of control | dose: 100.0 mg/kg/injection, schedule: Q01DX009 (ip), vehicle: saline 93 % of control | [10] 97 % of control | dose: 200.0 mg/kg/injection, schedule: Q01DX009 (ip), vehicle: saline 102 % of control | [11] 103 % of control | [9] 104 % of control | [12] 103 % of control

Cc1ccc(NCS(=O)(=O)O)cc1
inactive: dose: 25.0 mg/kg/injection, schedule: Q04DX003 (ip), vehicle: Klucel (hydroxypropylcellulose) (HPC) 106 % of control | dose: 50.0 mg/kg/injection, schedule: Q04DX003 (ip), vehicle: Klucel (hydroxypropylcellulose) (HPC) 103 % of control | [13] 95 % of control and 96 % of control | [14] 100 % of control | [15] 97 % of control

O=C(c1ccccc1)c1c2ccccc2c(Br)c2ccccc12
inactive: [2] 97 % of control | [13] 100 % of control | [3] 96 % of control | [14] 95 % of control | [16] 91 % of control | [15] 89 % of control

N#C/C(=C\C1CC(Br)CCC1O)C1CCC([N+](=O)[O-])CC1 (stereo not drawn)
inactive: [4] 97 % of control | [5] 86 % of control

S=c1[nH]c2ccccc2s1.[Pb]
inactive: dose: 100.0 mg/kg/injection, schedule: Q01DX001 (ip), vehicle: Klucel (hydroxypropylcellulose) (HPC) 94 % of control | dose: 200.0 mg/kg/injection, schedule: Q01DX001 (ip), vehicle: Klucel (hydroxypropylcellulose) (HPC) 100 % of control | dose: 400.0 mg/kg/injection, schedule: Q01DX001 (ip), vehicle: Klucel (hydroxypropylcellulose) (HPC) 100 % of control

O=C(Nc1ccccc1)OCC(Cl)(Cl)Cl
inactive: dose: 100.0 mg/kg/injection, schedule: Q01DX001 (ip), vehicle: saline sonified 105 % of control | [2] 100 % of control | [10] 91 % of control | dose: 200.0 mg/kg/injection, schedule: Q01DX001 (ip), vehicle: saline sonified 108 % of control | [3] 107 % of control | [11] 100 % of control | dose: 400.0 mg/kg/injection, schedule: Q01DX001 (ip), vehicle: saline sonified 103 % of control | [16] 100 % of control | [12] 96 % of control
